# Like-named read-outs stand apart in the source and are kept apart here.
# Assays:
# [1] = alamarBlue cytotoxicity (CC50), GT1a replicon cell line; settings: human
# Protocol: The anti-HCV activity of STG-175 was conducted using a panel of luciferase reporter replicon cell lines including GT1a, GT1b, GT2a, GT3a and GT4a as we described previously. The GT1a subgenomic renilla luciferase reporter replicon H77 RLucP (7) was supplied by Dr. Delaney. The GT1b subgenomic firefly luciferase reporter replicon pFK-I389/NS3-3’ [29] was supplied by Dr. Bartenschlager. The GT1B subgenomic NS3, NS5A and NS5B mutants were created via homologous recombination using the In-Fusion HD Cloning kit (Clontech) as we described previously. The GT2a genomic luciferase reporter replicon Luc-Neo-JFH-1 was generated as previously. The plasmid pFK-Luc-JFH1 was supplied from Drs. […] The CellTiter-Fluor™ Cell Viability Assay is a non-lytic fluorescence assay, which measures the number of live cells. […] Luciferase activity was determined using the Luciferase Assay System (Promega) in a Berthold luminometer. […] Viable cells continuously convert resazurin to resorufin, increasing the overall fluorescence and color of the media surrounding cells.
# Fig 2 Anti-HCV activities of STG-175 among GTs. […] Luciferase activity was determined using the Luciferase Assay System in a Berthold luminometer. […] Data are expressed as mean of relative light units and calculated EC50s are presented. […]
# [2] = test system: Con1 (GT1b) replicon colonies A, B, C (D320E NS5A); test: microbe, parasite or virus in culture; format: cell-based, hepatitis C virus; settings: for EC50: Hepatitis C virus, GT1B
# Protocol: (§1) Huh-7 cells expressing subgenomic Con1 (GT1b) replicon were incubated with STG-175 and 100 μg/ml of G418 in 10 cm CellBIND™ plates (Corning). Cells were split every 3 days at 1:6 and G418 concentration was increased sequentially to 200 and 300 μg/mL. […] At this point, medium was changed every 3–4 days until emergence of resistant clones. Clones were individually transferred to 24-well CellBIND using cloning disks. […] Each clone was split in 2 identical plates and was separately maintained under 0.5 or 1.0 μM STG-175 and 100 μg/mL of G418. Once the colonies were established, G418 concentration was increased to 300 μg/mL. […] Briefly, total RNA was prepared using the RNeasy Plus Mini Kit as per manufacturer’s recommendation. Two hundred ng of total RNA was used for cDNA production using primers specific to the NS3-NS5B region or oligo(dT)18 using AccuScript High Fidelity 1st Strand cDNA Synthesis Kit (Stratagene). Amplicons were generated using primers defining the sequence at its 5’ and 3’ ends. The amplicons were gel purified, quantitated and sequenced using primers located internally in NS5A or NS5B reading to the 5’ and 3’ ends. Sequences were assembled and analyzed using the ClustalW algorithm within the MacVector program. The sequencing was conducted twice to ensure the authenticity of the nucleotide substitutions.
# (§2) Fig 3 Replicon clearance, replication rebound and resistance analyses. […] Then drugs were removed to allow viral replication rebound to occur. At each passage, samples of cells were collected, RNA extracted and analyzed by RT-PCR for HCV RNA levels. B. Emergence of resistance: Con1 replicon Huh-7 cells were passaged 22 times in the absence or presence of STG-175 or selected DAAs. At each passage, sample of cells were collected, RNA extracted and analyzed by RT-PCR for HCV RNA levels. C. […] Data are expressed as number of HCV RNA copies per cell. […] Data are expressed as mean of relative light units and calculated EC50s are presented. […] E. Degree of resistance of D320E and Y321N Con1 variants: Left panel. Wild-type (WT), D320E and D320/Y321N NS5A Con1 RNA were electroporated into Huh7.5.1 cells and replication monitored over 8 days by quantifying the levels of intracellular HCV RNA. Right panel. Same as just above except that increasing concentrations of STG-175 were added at the time of the electroporation. […] STG-175 is taken as the substance from the printed x-axis title 'STG-175 in Log nM'.
# (§3) We then sequenced the NS3-NS5B region of the HCV variants (colonies), which emerged after multiple passages under STG-175 selection. […] The five STG-175-resistant variants (5 colonies A to E) were then retested for STG-175 resistance by exposing them to increasing concentrations of STG-175 as we described previously.
# [3] = test system: Con1 (GT1b) replicon colonies D, E (D320E/Y321N NS5A); test: microbe, parasite or virus in culture; format: cell-based, hepatitis C virus; settings: for EC50: Hepatitis C virus, GT1B
# Protocol: as §1, §2, §3
# [4] = test system: HBV in mixed PBMCs, NTCP-Huh7 and Huh7.5.1 cells; test: Dual/triple co-infection in cell co-cultures, HBV readout; format: cell-based, hepatitis B virus
structure (smiles),measurement,setting,value
CC=CCC(C)C(O)C1C(=O)NC(CC)C(=O)N(C)C(CSCCCCO)C(=O)N(C)C(CC(C)(C)O)C(=O)NC(C(C)C)C(=O)N(C)C(CC(C)C)C(=O)NC(C)C(=O)NC(C)C(=O)N(C)C(CC(C)C)C(=O)N(C)C(CC(C)C)C(=O)N(C)C(C(C)C)C(=O)N1C (centres unmarked) [STG-175],CC50 at 72 h,[1],> 10 µM
same,"average fold higher resistance than wild-type colonies, colonies A, B and C",[2],10 fold
same,"enhancement of resistance compared to wild-type replicon, colony A",[2],7.2 fold
same,"enhancement of resistance compared to wild-type replicon, colony B",[2],7.8 fold
same,"enhancement of resistance compared to wild-type replicon, colony C",[2],15.1 fold
same,EC50,"[2]; read-out: EC50, colony A (Clone A)",0.114 µM
same,EC50,"[2]; read-out: EC50, colony B (Clone B)",0.122 µM
same,EC50,"[2]; read-out: EC50, colony C (Clone C)",0.238 µM
same,EC50,"[2]; read-out: average EC50, colonies A, B and C",0.158 µM
same,"average fold higher resistance than wild-type colonies, colonies D and E",[3],33.8 fold
same,"enhancement of resistance compared to wild-type replicon, colony D",[3],48.8 fold
same,"enhancement of resistance compared to wild-type replicon, colony E",[3],18.9 fold
same,EC50,"[3]; read-out: EC50, colony D (Clone D)",0.767 µM
same,EC50,"[3]; read-out: EC50, colony E (Clone E)",0.297 µM
same,EC50,"[3]; read-out: average EC50, colonies D and E",0.531 µM
same,HBV infection in co-infection,[4]; STG-175 added together with virus,greatly attenuated
same,pre-established HBV infection in co-infection,[4]; added 3 days post-infection and then every 3 days,decreased the viral expansion
